pIC50: −log10 of the molar value. A value given as a limit tells only on which side of the number the result lay.

RON (human), sequence (Q04912 25-1400): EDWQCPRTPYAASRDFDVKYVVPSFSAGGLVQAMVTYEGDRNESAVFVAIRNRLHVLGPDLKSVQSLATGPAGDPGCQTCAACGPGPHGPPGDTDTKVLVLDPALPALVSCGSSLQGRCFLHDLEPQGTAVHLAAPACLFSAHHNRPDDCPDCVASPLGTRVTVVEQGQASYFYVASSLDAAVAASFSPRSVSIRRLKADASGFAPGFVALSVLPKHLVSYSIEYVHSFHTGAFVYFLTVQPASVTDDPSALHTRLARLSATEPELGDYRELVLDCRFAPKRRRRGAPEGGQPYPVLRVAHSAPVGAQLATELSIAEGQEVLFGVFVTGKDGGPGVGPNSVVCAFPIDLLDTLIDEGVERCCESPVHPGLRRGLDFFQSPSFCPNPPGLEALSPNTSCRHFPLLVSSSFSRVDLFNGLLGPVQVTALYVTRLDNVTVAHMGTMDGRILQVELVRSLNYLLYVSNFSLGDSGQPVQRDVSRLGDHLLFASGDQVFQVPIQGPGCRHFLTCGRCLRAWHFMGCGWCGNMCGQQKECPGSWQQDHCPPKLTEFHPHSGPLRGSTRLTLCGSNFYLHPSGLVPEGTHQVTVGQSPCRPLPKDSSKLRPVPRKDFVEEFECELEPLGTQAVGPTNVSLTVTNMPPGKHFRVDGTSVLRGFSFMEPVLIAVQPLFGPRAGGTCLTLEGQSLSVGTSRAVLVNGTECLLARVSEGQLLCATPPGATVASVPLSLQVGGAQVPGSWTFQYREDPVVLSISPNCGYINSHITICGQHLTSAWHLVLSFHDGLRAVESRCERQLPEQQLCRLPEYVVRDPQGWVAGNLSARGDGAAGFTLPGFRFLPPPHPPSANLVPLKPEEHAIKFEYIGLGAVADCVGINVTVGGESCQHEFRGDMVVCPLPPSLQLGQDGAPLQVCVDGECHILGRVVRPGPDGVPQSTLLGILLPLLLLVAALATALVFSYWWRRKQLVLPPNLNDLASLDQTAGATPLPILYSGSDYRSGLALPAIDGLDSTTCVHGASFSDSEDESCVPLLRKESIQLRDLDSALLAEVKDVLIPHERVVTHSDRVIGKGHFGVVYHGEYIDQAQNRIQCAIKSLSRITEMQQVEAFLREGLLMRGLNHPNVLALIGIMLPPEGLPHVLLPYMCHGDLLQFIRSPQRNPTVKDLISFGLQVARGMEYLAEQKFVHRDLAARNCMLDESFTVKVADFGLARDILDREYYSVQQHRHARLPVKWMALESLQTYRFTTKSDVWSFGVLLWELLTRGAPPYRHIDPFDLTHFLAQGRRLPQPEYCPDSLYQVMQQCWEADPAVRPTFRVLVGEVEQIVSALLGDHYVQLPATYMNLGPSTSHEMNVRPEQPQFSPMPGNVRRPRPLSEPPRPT

For one assay, the target named is MET (human) (Homo sapiens, UniProt P08581). Nature of the assay: MET (human) AlphaScreen kinase assay, Km of ATP. The settings on record: AlphaScreen, Km of ATP; read-out: Met biochemical IC50. It is filed as biochemical. As to the method: (§1) Someone skilled in the art will appreciate that a variety of assay formats may be used to determine the activity of the compounds of this invention. For example, AlphaScreen (Amplified Luminescent Proximity Homogeneous Assay) technology was used with the kinases described below. Assay ATP concentrations for individual kinases are included in the text.
MET (human), sequence (P08581 25-1390): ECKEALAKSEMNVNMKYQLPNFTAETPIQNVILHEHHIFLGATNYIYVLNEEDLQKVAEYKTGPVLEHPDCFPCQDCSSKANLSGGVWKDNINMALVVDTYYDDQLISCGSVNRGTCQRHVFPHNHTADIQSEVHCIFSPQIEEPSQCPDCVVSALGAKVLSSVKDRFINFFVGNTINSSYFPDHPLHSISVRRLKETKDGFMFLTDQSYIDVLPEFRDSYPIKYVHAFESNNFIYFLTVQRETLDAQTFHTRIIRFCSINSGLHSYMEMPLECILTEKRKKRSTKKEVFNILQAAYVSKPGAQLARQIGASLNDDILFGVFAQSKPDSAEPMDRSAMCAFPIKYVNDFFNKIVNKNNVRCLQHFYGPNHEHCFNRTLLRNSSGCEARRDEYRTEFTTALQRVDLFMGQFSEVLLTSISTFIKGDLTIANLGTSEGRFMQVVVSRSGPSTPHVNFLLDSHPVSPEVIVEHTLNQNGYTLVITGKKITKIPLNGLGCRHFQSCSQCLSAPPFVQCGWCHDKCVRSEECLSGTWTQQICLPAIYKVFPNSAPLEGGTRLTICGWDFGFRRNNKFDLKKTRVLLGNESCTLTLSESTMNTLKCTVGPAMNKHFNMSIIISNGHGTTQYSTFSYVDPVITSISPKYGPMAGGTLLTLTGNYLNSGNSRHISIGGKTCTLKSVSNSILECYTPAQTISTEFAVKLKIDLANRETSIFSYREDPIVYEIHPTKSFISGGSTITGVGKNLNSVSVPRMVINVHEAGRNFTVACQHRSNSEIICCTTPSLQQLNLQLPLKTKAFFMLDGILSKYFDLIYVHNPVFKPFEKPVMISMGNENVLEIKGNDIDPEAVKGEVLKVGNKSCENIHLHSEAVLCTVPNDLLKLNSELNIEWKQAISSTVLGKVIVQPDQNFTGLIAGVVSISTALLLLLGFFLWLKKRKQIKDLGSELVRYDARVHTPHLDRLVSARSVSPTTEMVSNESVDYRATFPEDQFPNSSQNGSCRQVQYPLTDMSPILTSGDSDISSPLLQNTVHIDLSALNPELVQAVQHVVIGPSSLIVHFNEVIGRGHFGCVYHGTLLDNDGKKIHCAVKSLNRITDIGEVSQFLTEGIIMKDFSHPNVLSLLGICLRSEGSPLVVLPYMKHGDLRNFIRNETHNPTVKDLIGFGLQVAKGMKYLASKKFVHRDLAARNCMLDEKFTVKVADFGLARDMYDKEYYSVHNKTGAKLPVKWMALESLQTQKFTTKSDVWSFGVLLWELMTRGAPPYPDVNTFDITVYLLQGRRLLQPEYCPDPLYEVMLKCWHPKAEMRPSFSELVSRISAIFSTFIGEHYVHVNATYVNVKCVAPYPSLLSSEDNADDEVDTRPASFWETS
Desired compound is added in a final concentration of 1% DMSO with control being vehicle of DMSO alone. MET is diluted to the optimized concentration (optimized on a lot-by-lot basis) in an enzyme diluent buffer (50 mM Tris pH=7.4, 1% glycerol, 0.03% Brij35, 0.24 mM EGTA, 1 mM DTT, and 0.003% BSA). Enzyme is added to initiate the reaction and incubated for 60 min at RT. In subdued light, appropriate amount of PT66 donor and acceptor beads (diluted 1:260 from manufacturer's provision in a 25 mM Tris HCl (pH=7.5), 400 mM NaCl, 100 mM EDTA, 0.3% BSA buffer) are added to the wells. The plates, incubated for 1 h, are read on an AlphaQuest plate reader
(Alpha assays give light when donor and acceptor beads are brought close together.)
`CCC(Oc1c(N)ncc2c(-c3cnn(C4CCNCC4)c3)coc12)c1c(Cl)cccc1Cl` (centres unmarked) [Example 340, 7-[1-(2,6-Dichlorophenyl)propoxy]-3-(1-piperidin-4-yl-1H-pyrazol-4-yl)furo[3,2-c]pyridin-6-ylamine]: the pIC50 (as a rule, the IC50 on a negative log10 scale, so that one unit is a factor of ten) was above 6.30.
Turning to `Nc1ncc2c(-c3cnn(C4CCNCC4)c3)coc2c1OC1CCCc2c(F)cccc21` (centres unmarked) [Example 390, 7-(5-Fluoro-1,2,3,4-tetrahydronaphthalen-1-yloxy)-3-(1-piperidin-4-yl-1H-pyrazol-4-yl)furo[3,2-c]pyridin-6-ylamine], the negative logarithm of the IC50 (pIC50) is above 6.30.
With `C[C@@H](Oc1c(N)ncc2c(-c3cc(C(=O)O)cs3)coc12)c1c(Cl)ccc(F)c1Cl` [Example 325, 5-{6-Amino-7-[(R)-1-(2,6-dichloro-3-fluorophenyl)ethoxy]furo[3,2-c]pyridin-3-yl}thiophene-3-carboxylic acid], the pIC50 is 4.70 to 5.30.
With `CC(C)NC(=O)c1cc(-c2coc3c(O[C@H](C)c4c(Cl)ccc(F)c4Cl)c(N)ncc23)cs1` [Example 312, 4-{6-Amino-7-[(R)-1-(2,6-dichloro-3-fluorophenyl)ethoxy]furo[3,2-c]pyridin-3-yl}thiophene-2-carboxylic acid isopropylamide], the pIC50 was above 6.30.

The target of the next assay is RON (human) (Homo sapiens, UniProt Q04912). The experiment in a line: RON (human) AlphaScreen kinase assay, Km of ATP. It is filed as biochemical. The settings on record: AlphaScreen, Km of ATP; read-out: RON biochemical IC50. As to the method:
as §1
Desired compound is added in a final concentration of 1% DMSO with control being vehicle of DMSO alone. […] Enzyme is added to initiate the reaction and incubated for 30 min at RT. In subdued light, appropriate amount of PT66 donor and acceptor beads (diluted 1:260 from manufacturer's provision in a 25 mM Tris HCl (pH=7.5), 200 mM NaCl, 100 mM EDTA, 0.3% BSA buffer) are added to the wells. The plates, incubated for 1 h, are read on an AlphaQuest plate reader.
As to `CCC(Oc1c(N)ncc2c(-c3cnn(C4CCNCC4)c3)coc12)c1c(Cl)cccc1Cl` (centres unmarked) [Example 340, 7-[1-(2,6-Dichlorophenyl)propoxy]-3-(1-piperidin-4-yl-1H-pyrazol-4-yl)furo[3,2-c]pyridin-6-ylamine], the pIC50 was 5.30 to 6.30.
Same read-out and setting: the figure for `Nc1ncc2c(-c3cnn(C4CCNCC4)c3)coc2c1OC1CCCc2c(F)cccc21` (centres unmarked) [Example 390, 7-(5-Fluoro-1,2,3,4-tetrahydronaphthalen-1-yloxy)-3-(1-piperidin-4-yl-1H-pyrazol-4-yl)furo[3,2-c]pyridin-6-ylamine] is above 6.30; for `C[C@@H](Oc1c(N)ncc2c(-c3cc(C(=O)O)cs3)coc12)c1c(Cl)ccc(F)c1Cl` [Example 325, 5-{6-Amino-7-[(R)-1-(2,6-dichloro-3-fluorophenyl)ethoxy]furo[3,2-c]pyridin-3-yl}thiophene-3-carboxylic acid] it is 4.70 to 5.30; for `CC(C)NC(=O)c1cc(-c2coc3c(O[C@H](C)c4c(Cl)ccc(F)c4Cl)c(N)ncc23)cs1` [Example 312, 4-{6-Amino-7-[(R)-1-(2,6-dichloro-3-fluorophenyl)ethoxy]furo[3,2-c]pyridin-3-yl}thiophene-2-carboxylic acid isopropylamide] it is 5.30 to 6.30.
Still for that read-out and setting: the same measure for `CNC(=O)N1CC=C(c2coc3c(O[C@H](C)c4c(Cl)ccc(F)c4Cl)c(N)ncc23)CC1` [Example 35, 4-{6-Amino-7-[(R)-1-(2,6-dichloro-3-fluorophenyl)-ethoxy]-furo[3,2-c]pyridin-3-yl}-3,6-dihydro-2H-pyridine-1-carboxylic acid methylamide]: 5.30 to 6.30.
`C[C@@H](Oc1c(N)ncc2c(C3=CCNCC3)coc12)c1c(Cl)ccc(F)c1Cl` [Example 8, 7-[(R)-1-(2,6-Dichloro-3-fluorophenyl)ethoxy]-3-(1,2,3,6-tetrahydropyridin-4-yl)-furo[3,2-c]pyridin-6-ylamine]: the negative-log IC50 (pIC50) was 5.30 to 6.30.
For `CC(Oc1c(N)ncc2c(-c3cnn(C4CCNCC4)c3)coc12)c1c(Cl)ccc(Cl)c1Cl` (centres unmarked) [Example 349, 3-(1-Piperidin-4-yl-1H-pyrazol-4-yl)-7-[1-(2,3,6-trichlorophenyl)-ethoxy]furo[3,2-c]pyridin-6-ylamine], the negative-log IC50 (pIC50) was above 6.30.
Still for that read-out and setting: the same measure for `CC(Oc1c(N)ncc2c(-c3cnn(C4CCNCC4)c3)coc12)c1cc(F)ccc1Cl` (centres unmarked) [Example 336, 7-[1-(2-Chloro-5-fluorophenyl)ethoxy]-3-(1-piperidin-4-yl-1H-pyrazol-4-yl)-furo[3,2-c]pyridin-6-ylamine]: 5.30 to 6.30; for `CC(=O)N1CC=C(c2coc3c(O[C@H](C)c4c(Cl)ccc(F)c4Cl)c(N)ncc23)CC1` [Example 12, 1-(4-{6-Amino-7-[(R)-1-(2,6-dichloro-3-fluorophenyl)-ethoxy]-furo[3,2-c]pyridin-3-yl}-3,6-dihydro-2H-pyridin-1-yl)-ethanone]: 5.30 to 6.30.
As for `CC(Oc1c(N)ncc2c(-c3cnn(C4CCNCC4)c3)coc12)c1c(Cl)c(F)cc(F)c1Cl` (centres unmarked) [Example 154, 7-[1-(2,6-Dichloro-3,5-difluorophenyl)ethoxy]-3-[1-(piperidin-4-yl)-1H-pyrazol-4-yl]furo[3,2-c]pyridin-6-amine], the pIC50 was above 6.30.
For the compound `COC(=O)N1CC=C(c2coc3c(O[C@H](C)c4c(Cl)ccc(F)c4Cl)c(N)ncc23)CC1` [Example 50, 4-{6-Amino-7-[(R)-1-(2,6-dichloro-3-fluorophenyl)-ethoxy]-furo[3,2-c]pyridin-3-yl}-3,6-dihydro-2H-pyridine-1-carboxylic acid methyl ester], the pIC50 is 5.30 to 6.30.
With `CCC(Oc1c(N)ncc2c(-c3cnn(C4CCNCC4)c3)coc12)c1c(Cl)ccc(F)c1Cl` (centres unmarked) [Example 350], the negative logarithm of the IC50 (pIC50) is above 6.30.
As to `Nc1ncc2c(-c3cnn(C4CCNCC4)c3)coc2c1OCc1c(Cl)ccc(F)c1Cl` [Example 339, 7-(2,6-Dichloro-3-fluorobenzyloxy)-3-(1-piperidin-4-yl-1H-pyrazol-4-yl)-furo[3,2-c]pyridin-6-ylamine], the negative logarithm of the IC50 (pIC50) is 5.30 to 6.30.
On the same count and under the same terms, the figure for `C#CCC(Oc1c(N)ncc2c(-c3cnn(C4CCNCC4)c3)coc12)c1c(Cl)ccc(F)c1Cl` (centres unmarked) [Example 353, 7-[1-(2,6-Dichloro-3-fluorophenyl)but-3-ynyloxy]-3-(1-piperidin-4-yl-1H-pyrazol-4-yl)furo[3,2-c]pyridin-6-ylamine] is 5.30 to 6.30.
Regarding `CCCC(Oc1c(N)ncc2c(-c3cnn(C4CCNCC4)c3)coc12)c1c(Cl)ccc(F)c1Cl` (centres unmarked) [Example 357, 7-[1-(2,6-Dichloro-3-fluorophenyl)butoxy]-3-(1-piperidin-4-yl-1H-pyrazol-4-yl)furo[3,2-c]pyridin-6-ylamine], the negative-log IC50 (pIC50) is above 6.30.
For the compound `CNC(=O)c1coc2c(O[C@H](C)c3c(Cl)ccc(F)c3Cl)c(N)ncc12` [Example 178, 6-Amino-7-[(R)-1-(2,6-dichloro-3-fluorophenyl)ethoxy]furo[3,2-c]pyridine-3-carboxylic acid methylamide], the negative logarithm of the IC50 (pIC50) was 5.30 to 6.30.
On to `CC(Oc1c(N)ncc2c(-c3cnn(C4CCNCC4)c3)coc12)c1cccc(F)c1Cl` (centres unmarked) [Example 351, 7-[1-(2-Chloro-3-fluorophenyl)ethoxy]-3-(1-piperidin-4-yl-1H-pyrazol-4-yl)-furo[3,2-c]pyridin-6-ylamine], for which the pIC50 was 5.30 to 6.30.
Turning to `C[C@@H](Oc1c(N)ncc2c(-c3ccccn3)coc12)c1c(Cl)ccc(F)c1Cl` [Example 137, 7-[(R)-1-(2,6-Dichloro-3-fluorophenyl)-ethoxy]-3-pyridin-2-ylfuro[3,2-c]pyridin-6-ylamine], the pIC50 is 5.30 to 6.30.
Still for that read-out and setting: the same measure for `C[C@@H](Oc1c(N)ncc2c(C3=CCN(C(=O)N(C)C)CC3)coc12)c1c(Cl)ccc(F)c1Cl` [Example 26, 4-{6-Amino-7-[(R)-1-(2,6-dichloro-3-fluorophenyl)-ethoxy]-furo[3,2-c]pyridin-3-yl}-3,6-dihydro-2H-pyridine-1-carboxylic acid Dimethylamide]: 5.30 to 6.30; for `C[C@@H](Oc1c(N)ncc2c(-c3cccnc3)coc12)c1c(Cl)ccc(F)c1Cl` [Example 126, 7-[(R)-(2,6-Dichloro-3-fluorophenyl)ethoxy]-3-pyridin-3-ylfuro[3,2-c]pyridin-6-ylamine]: 5.30 to 6.30; for `CC(Oc1c(N)ncc2c(-c3cnn(C4CCNCC4)c3)coc12)c1c(Cl)cc(Cl)cc1Cl` (centres unmarked) [Example 364, 3-(1-Piperidin-4-yl-1H-pyrazol-4-yl)-7-[1-(2,4,6-trichlorophenyl)-ethoxy]furo[3,2-c]pyridin-6-ylamine]: above 6.30.
On to `C=CCC(Oc1c(N)ncc2c(-c3cnn(C4CCNCC4)c3)coc12)c1c(Cl)ccc(F)c1Cl` (centres unmarked) [Example 358, 7-[1-(2,6-Dichloro-3-fluorophenyl)but-3-enyloxy]-3-(1-piperidin-4-yl-1H-pyrazol-4-yl)furo[3,2-c]pyridin-6-ylamine], for which the negative logarithm of the IC50 (pIC50) was above 6.30.
Consider `CC(=O)N1CCC(n2cc(-c3coc4c(O[C@H](C)c5c(Cl)ccc(F)c5Cl)c(N)ncc34)cn2)CC1` [Example 276, 1-[4-(4-{6-Amino-7-[(1R)-1-(2,6-dichloro-3-fluorophenyl)ethoxy]furo[3,2-c]pyridin-3-yl}-1H-pyrazol-1-yl)piperidin-1-yl]ethanone], for which the negative-log IC50 (pIC50) is 5.30 to 6.30.
Regarding `C[C@@H](Oc1c(N)ncc2c(-c3ccncc3)coc12)c1c(Cl)ccc(F)c1Cl` [Example 127, 7-[(R)-(2,6-Dichloro-3-fluorophenyl)ethoxy]-3-pyridin-4-ylfuro[3,2-c]pyridin-6-ylamine], the pIC50 is 5.30 to 6.30.
Same read-out and setting: the same measure for `C[C@@H](Oc1c(N)ncc2c(C3CCNCC3)coc12)c1c(Cl)ccc(F)c1Cl` [Example 25, 7-[(R)-1-(2,6-Dichloro-3-fluorophenyl)-ethoxy]-3-piperidin-4-yl-furo[3,2-c]pyridin-6-ylamine]: 5.30 to 6.30; for `C[C@@H](Oc1c(N)ncc2c(C3=CCN(S(N)(=O)=O)CC3)coc12)c1c(Cl)ccc(F)c1Cl` [Example 141, 4-{6-Amino-7-[(1R)-1-(2,6-dichloro-3-fluorophenyl)ethoxy]furo[3,2-c]pyridin-3-yl}-3,6-dihydropyridine-1(2H)-sulfonamide]: 5.30 to 6.30; for `C[C@@H](Oc1c(N)ncc2c(-c3ccccc3)coc12)c1c(Cl)ccc(F)c1Cl` [Example 3, 7-[(R)-1-(2,6-dichloro-3-fluorophenyl)-ethoxy]-3-phenyl-furo[3,2-c]pyridin-6-ylamine]: 5.30 to 6.30.
For `C[C@@H](Oc1c(N)ncc2c(-c3cn[nH]c3)coc12)c1c(Cl)ccc(F)c1Cl` [Example 6, 7-[(R)-1-(2,6-Dichloro-3-fluorophenyl)ethoxy]-3-(1H-pyrazol-4-yl)-furo[3,2-c]pyridin-6-ylamine], the pIC50 is 5.30 to 6.30.

For the origin of these results see patent US8022206B2 (OSI Pharmaceuticals, LLC, priority 2008, dated 2011).
